Data reported in the supplement of paper PMC13380429.

Key:
Conditions in all cases: 72 h
U2OS [1] = assay: relative viability EC50 (midpoint between 100% and the lowest measured viability); higher = less toxic
Caco-2 [2] = assay: as above
Vero E6 [3] = assay: as above
Calu-3 [4] = assay: as above
U2OS [5] = assay: cell viability relative to DMSO; higher = less toxic
Caco-2 [6] = assay: as above
Vero E6 [7] = assay: as above
Calu-3 [8] = assay: as above
HepG2 [9] = assay: as above
U2OS [10] = assay: drug sensitivity score (DSS) for viability; higher = more toxic; extreme values may be limits of the assay
Caco-2 [11] = assay: as above
Vero E6 [12] = assay: as above
Calu-3 [13] = assay: as above
HepG2 [14] = assay: as above

| SMILES | relative viability EC50 (U2OS [1]) [µM] | relative viability EC50 (Caco-2 [2]) [µM] | relative viability EC50 (Vero E6 [3]) [µM] | relative viability EC50 (Calu-3 [4]) [µM] | cell viability (U2OS [5]; 1 nM) [%] | cell viability (U2OS [5]; 10 nM) [%] | cell viability (U2OS [5]; 100 nM) [%] | cell viability (U2OS [5]; 1000 nM) [%] | cell viability (U2OS [5]; 10000 nM) [%] | cell viability (Caco-2 [6]; 1 nM) [%] | cell viability (Caco-2 [6]; 10 nM) [%] | cell viability (Caco-2 [6]; 100 nM) [%] | cell viability (Caco-2 [6]; 1000 nM) [%] | cell viability (Caco-2 [6]; 10000 nM) [%] | cell viability (Vero E6 [7]; 1 nM) [%] | cell viability (Vero E6 [7]; 10 nM) [%] | cell viability (Vero E6 [7]; 100 nM) [%] | cell viability (Vero E6 [7]; 1000 nM) [%] | cell viability (Vero E6 [7]; 10000 nM) [%] | cell viability (Calu-3 [8]; 1 nM) [%] | cell viability (Calu-3 [8]; 10 nM) [%] | cell viability (Calu-3 [8]; 100 nM) [%] | cell viability (Calu-3 [8]; 1000 nM) [%] | cell viability (Calu-3 [8]; 10000 nM) [%] | cell viability (HepG2 [9]; 1 nM) [%] | cell viability (HepG2 [9]; 10 nM) [%] | cell viability (HepG2 [9]; 100 nM) [%] | cell viability (HepG2 [9]; 1000 nM) [%] | cell viability (HepG2 [9]; 10000 nM) [%] | drug sensitivity score (U2OS [10]) | drug sensitivity score (Caco-2 [11]) | drug sensitivity score (Vero E6 [12]) | drug sensitivity score (Calu-3 [13]) | drug sensitivity score (HepG2 [14]) |
| --- | --- | --- | --- | --- | --- | --- | --- | --- | --- | --- | --- | --- | --- | --- | --- | --- | --- | --- | --- | --- | --- | --- | --- | --- | --- | --- | --- | --- | --- | --- | --- | --- | --- | --- |
| CC(C)C[C@@H](C(=O)N[C@@H](Cc1ccc(OCc2ccccc2)cc1)C(=O)NC(C)(C)C)N(C)Cc1ccc(C(C)(C)C)cc1 | > 10 | > 10 | > 10 | > 10 | 97.4 | 101 | 97.5 | 101 | 85.5 | 88.8 | 95.9 | 94.1 | 100 | 87.5 | 103 | 103 | 106 | 97.8 | 95.7 | 93.4 | 105 | 97.5 | 111 | 87.8 | 107 | 101 | 93.5 | 99.1 | 68 | 0.1 | 0 | 0 | 0 | 1.6 |
| COCc1nnc(N2CC(Oc3ccc(F)cc3Cl)C2)n1-c1ccc(OC)nc1 | > 10 | > 10 | > 10 | > 10 | 93.3 | 93.6 | 95.6 | 103 | 97.4 | 88.5 | 105 | 102 | 105 | 97.5 | 97.8 | 93.1 | 101 | 90.9 | 106 | 92.8 | 103 | 101 | 104 | 113 |  |  |  |  |  | 0 | 0 | 0 | 0 |  |
| Nc1nc(NCCNc2ncc(-n3ccnc3)c(-c3ccc(Cl)cc3Cl)n2)ccc1[N+](=O)[O-] | > 10 | > 10 | > 10 | > 10 | 96.9 | 101 | 96.7 | 103 | 110 | 96.7 | 99.9 | 100 | 111 | 111 | 96.1 | 98 | 94.2 | 97.1 | 106 | 96.3 | 98.1 | 104 | 111 | 112 |  |  |  |  |  | 0 | 0 | 0 | 0 |  |
| NCC(=O)Nc1ccc(-n2nc(C(F)(F)F)cc2-c2ccc3c(ccc4ccccc43)c2)cc1 [AR-12] | > 10 | > 10 |  | 3.39 | 89.7 | 98.9 | 95 | 100 | 89 | 96.8 | 91 | 87.9 | 96.8 | 92.1 | 97.4 | 94.3 | 95.7 | 80.4 | 68.2 | 103 | 98.2 | 98.9 | 102 | 45.4 | 110 | 96.1 | 103 | 105 | 71.5 | 0 | 0 | 3.5 | 2.7 | 0.9 |
| Cc1ccccc1NC(=O)Nc1ccc(CC(=O)N(C)[C@@H](CC(C)C)C(=O)NCC[C@H](NC(=O)[C@@H]2CCCN2S(=O)(=O)c2cc(Cl)cc(Cl)c2)C(=O)O)cc1 [BIO-5192] | > 10 | > 10 | > 10 | > 10 | 102 | 96.2 | 95.1 | 105 | 97.6 | 98 | 97.3 | 90.5 | 99.5 | 96.8 | 98.3 | 93.9 | 93.1 | 96.7 | 109 | 104 | 102 | 96.5 | 108 | 104 |  |  |  |  |  | 0 | 0 | 0 | 0 |  |
| CNC(=O)[C@H]1O[C@@H](n2cnc3c(NCc4cccc(I)c4)ncnc32)[C@H](O)[C@@H]1O [IB-MECA] | > 10 | > 10 | > 10 | > 10 | 101 | 105 | 102 | 106 | 95.8 | 112 | 96.2 | 99.8 | 105 | 93.3 | 103 | 97.1 | 99.8 | 97 | 102 | 96.3 | 98.3 | 93.4 | 109 | 85.3 | 107 | 68.7 | 98.3 | 68.8 | 88.8 | 0 | 0 | 0 | 0.1 | 3.3 |
| CN(C[C@@H]1COCCO1)S(=O)(=O)Nc1ccc2ccc3ncc(-c4cnn(C)c4)cc3c(=O)c2c1 [MK-2461] |  |  |  | > 10 | 89.1 | 98.8 | 99.2 | 96.9 | 64.1 | 103 | 97.9 | 94.5 | 99.7 | 64.5 | 103 | 97.7 | 97.3 | 93.2 | 59.7 | 81.9 | 89 | 84 | 90.7 | 93.9 | 96.6 | 96.6 | 96.5 | 91.4 | 58.6 | 2.2 | 1.7 | 3.1 | 0 | 3.5 |
| COc1ccccc1N1CCN(CCCCN2C(=O)CCC2=O)CC1 [MM77] | > 10 | > 10 | > 10 | > 10 | 100 | 101 | 94.9 | 106 | 97.2 | 92.4 | 102 | 83.8 | 102 | 106 | 94.5 | 93.4 | 92.7 | 94 | 110 | 104 | 100 | 96.6 | 114 | 107 |  |  |  |  |  | 0 | 0 | 0 | 0 |  |
| COc1ccccc1S(=O)(=O)Nc1ccc2c(c1)CN(C)C(=O)N2 [PFI-1] |  | > 10 | 1.65 |  |  |  |  |  |  | 102 | 102 | 107 | 94 | 75.7 | 102 | 102 | 96.2 | 81.5 | 16.3 | 102 | 92.6 | 102 | 88 | 58.2 | 108 | 103 | 94.3 | 94.4 | 50.1 |  | 1.7 | 7.6 | 3.9 | 3.6 |
| CNC(=O)COC(=O)NCCC1CCN(c2cccc(C)n2)CC1 [SA-47] | > 10 | > 10 | > 10 | > 10 | 92.8 | 101 | 103 | 97.7 | 99.2 | 90.7 | 101 | 97.7 | 99.3 | 94 | 85.7 | 97.6 | 90.7 | 92.7 | 110 | 98.4 | 101 | 105 | 103 | 105 |  |  |  |  |  | 0 | 0 | 0 | 0 |  |
| CCc1cccc(CC)c1NC1=NCCN1 [ST-91] | > 10 | > 10 | > 10 | > 10 | 103 | 98.7 | 104 | 94.8 | 99 | 102 | 101 | 96.2 | 93.4 | 100 | 98.9 | 97.1 | 102 | 98.3 | 93.5 | 104 | 90.2 | 96.6 | 89.6 | 115 |  |  |  |  |  | 0 | 0 | 0 | 0 |  |
| Cc1cc(C)nc(SCC(=O)Nc2ncc(Cc3cccc4ccccc34)s2)n1 [SirReal-2] | > 10 | > 10 |  | > 10 | 94.7 | 103 | 96.6 | 101 | 92.8 | 104 | 101 | 93.4 | 99.6 | 96.6 |  |  |  |  |  | 97 | 95.7 | 95.1 | 91 | 102 |  |  |  |  |  | 0 | 0 |  | 0 |  |
| C=CC(=O)O [acrylate] |  |  |  |  |  |  |  |  |  |  |  |  |  |  |  |  |  |  |  |  |  |  |  |  |  |  |  |  |  | 0 |  | 0 | 0 | 0 |
| CC(=O)[C@@]12O[C@](C)(c3ccccc3)O[C@@H]1C[C@H]1[C@@H]3CCC4=CC(=O)CC[C@]4(C)[C@H]3CC[C@@]12C [algestone-acetophenide] | > 10 | > 10 | > 10 | > 10 | 99.7 | 95.2 | 99.3 | 98.4 | 91.8 | 104 | 94.2 | 97.5 | 100 | 78.5 | 101 | 96.6 | 87.5 | 92.3 | 102 | 105 | 100 | 96.3 | 109 | 86.4 | 98.3 | 108 | 102 | 103 | 71.7 | 0 | 0.7 | 0 | 0 | 1 |
| CN(C)CCc1c[nH]c2ccc(CS(=O)(=O)N3CCCC3)cc12 [almotriptan] | > 10 | > 10 |  | > 10 | 101 | 104 | 101 | 98.6 | 100 | 92.9 | 97.9 | 99.9 | 109 | 106 |  |  |  |  |  | 98.8 | 103 | 108 | 97.8 | 106 |  |  |  |  |  | 0 | 0 |  | 0 |  |
| C1=C2CCCN[C@H]2[C@@H]2C[C@H]1[C@H]1CCCCN1C2 [aloperine] | > 10 | > 10 | > 10 | > 10 | 96.8 | 102 | 92.8 | 100 | 94.1 | 96.4 | 108 | 104 | 106 | 94.4 | 102 | 100 | 104 | 99.4 | 98.1 | 91.1 | 99.2 | 90.7 | 85 | 83.1 |  |  |  |  |  | 0 | 0 | 0 | 1.4 |  |
